How the values were obtained:
[1] = tested on: Rattus norvegicus; experiment: Anti-inflammatory activity in Wistar Rattus norvegicus (rat) assessed as inhibition of carrageenan-induced paw edema at 70 mg/kg, po administered 1 hr prior to carrageenan-challenge measured after 4 hr by plethysmometer analysis; format: functional
[2] = tested on: Rattus norvegicus; experiment: Effect on lipid peroxidation in Wistar Rattus norvegicus (rat) gastric mucosa assessed as malondialdehyde content at 210 mg/kg, po measured per 100 mg of tissue by UV spectrophotometric analysis (reference value: 3.26 +/-0.01 nmol); format: ADME, organism-based; design: dose 210 mg/kg, route oral; settings: in vivo
[3] = tested on: Rattus norvegicus; experiment: Anti-inflammatory activity in Wistar Rattus norvegicus (rat) assessed as inhibition of carrageenan-induced paw edema at 70 mg/kg, po administered 1 hr prior to carrageenan-challenge measured after 3 hr by plethysmometer analysis; format: functional
[4] = tested on: Mus musculus; experiment: Analgesic activity in Swiss albino Mus musculus (mouse) assessed as inhibition of pain at 70 mg/kg, po measured after 4 hr by tail immersion method; format: functional
[5] = tested on: Rattus norvegicus; experiment: Potency index, Rattus norvegicus (rat)io of ibuprofen anti-inflammatory activity to compound anti-inflammatory activity in Wistar Rattus norvegicus (rat) at 70 mg/kg, po administered 1 hr prior to carrageenan-challenge measured after 4 hr by plethysmometer analysis; format: functional
[6] = tested on: Mus musculus; experiment: Analgesic activity in Swiss albino Mus musculus (mouse) assessed as time required for tail withdrawal at 70 mg/kg, po measured after 4 hr by tail immersion method; format: functional
[7] = tested on: Mus musculus; experiment: Potency index, ratio of ibuprofen analgesic activity to compound analgesic in Swiss albino Mus musculus (mouse) at 70 mg/kg, po measured after 4 hr by tail immersion method; format: functional
[8] = tested on: Rattus norvegicus; experiment: Gastrointestinal toxicity in Wistar Rattus norvegicus (rat) assessed as ulcerogenicity index at 210 mg/kg, po (reference value: 0 No unit); format: organism-based; design: dose 210 mg/kg, route oral; settings: in vivo
[9] = tested on: Rattus norvegicus; experiment: Hepatotoxicity in Wistar albino Rattus norvegicus (rat) assessed as serum glutamate oxaloacetate transaminase activity at 210 mg/kg, po qd for 15 days (reference value: 143.71 +/-1.10 units/ml); format: toxicity, organism-based; design: dose 210 mg/kg, route oral; settings: in vivo, 360 h
[10] = tested on: Rattus norvegicus; experiment: Hepatotoxicity in Wistar albino Rattus norvegicus (rat) assessed as serum glutamate pyruvate transaminase activity at 210 mg/kg, po qd for 15 days (reference value: 32.46 +/-0.76 units/ml); format: toxicity, organism-based; design: dose 210 mg/kg, route oral; settings: in vivo, 360 h
[11] = tested on: Rattus norvegicus; experiment: Hepatotoxicity in Wistar albino Rattus norvegicus (rat) assessed as serum total protein level at 210 mg/kg, po qd for 15 days (reference value: 1.72 +/-0.02 g/dl); format: toxicity, organism-based; design: dose 210 mg/kg, route oral; settings: in vivo, 360 h
[12] = tested on: Rattus norvegicus; experiment: Hepatotoxicity in Wistar albino Rattus norvegicus (rat) assessed as serum alkaline phosphatase activity at 210 mg/kg, po qd for 15 days; format: toxicity, organism-based; design: dose 210 mg/kg, route oral; settings: in vivo, 360 h
[13] = tested on: Rattus norvegicus; experiment: Hepatotoxicity in Wistar albino Rattus norvegicus (rat) assessed as serum total albumin level at 210 mg/kg, po qd for 15 days (reference value: 1.63 +/-0.02 g/dl); format: toxicity, organism-based; design: dose 210 mg/kg, route oral; settings: in vivo, 360 h
[14] = tested on: Rattus norvegicus; experiment: Hepatotoxicity in Wistar albino Rattus norvegicus (rat) assessed as hepatocyte with clearing of cytoplasm and compression of sinusoidal spaces at 210 mg/kg, po qd for 15 days measured after 24 hr of last dosage of drug by hematoxylin-eosin staining based light microscopy; format: toxicity, organism-based, Sinusoidal space; design: dose 210 mg/kg, route oral; settings: hepatocytes
[15] = tested on: Rattus norvegicus; experiment: Hepatotoxicity in Wistar albino Rattus norvegicus (rat) assessed as hepatocyte necrosis and degeneRattus norvegicus (rat)ion at 210 mg/kg, po qd for 15 days measured after 24 hr of last dosage of drug by hematoxylin-eosin staining based light microscopy; format: toxicity, organism-based; design: dose 210 mg/kg, route oral; settings: hepatocytes

Row | SMILES | inhibition in vivo at 70 mg/kg [1] | Activity [2] | inhibition in vivo at 70 mg/kg [3] | inhibition in vivo at 70 mg/kg [4] | Ratio [5] | Time [6] | Ratio [7] | UI [8] | Activity [9] | Activity [10] | Activity [11] | Activity [12] | Activity [13] | Activity [14] | Activity [15]
1 | Clc1ccc2nc(Nc3nnc(Oc4ccccc4)o3)sc2c1 | 88.8% | 9.1 nmol | 74.2% | 52% | 1.07 | 1.9 s | 0.63 | 1.083 |  |  |  |  |  |  | 
2 | Clc1ccc2nc(Nc3nnc(-c4ccccc4)o3)sc2c1 | 88.3% | 4.47 nmol | 78.8% | 61.1% | 1.06 | 1.45 s | 0.74 | 1.667 |  |  |  |  |  |  | 
3 | CC.O=[N+]([O-])c1ccc(-c2nnc(Nc3nc4ccc(Cl)cc4s3)o2)cc1 | 32.5% |  | 19.2% |  | 0.39 |  |  |  |  |  |  |  |  |  | 
4 | Cc1ccccc1-c1nn2c(Nc3nc4ccc(Cl)cc4s3)nnc2s1 | 88.8% | 7.44 nmol | 77.5% | 76.9% | 1.07 | 2.83 s | 0.93 | 1.583 |  |  |  |  |  |  | 
5 | Sc1nnc(Nc2nc3ccc(Cl)cc3s2)o1 | 69.8% | 9.04 nmol | 61.7% | 72.3% | 0.84 | 2.24 s | 0.88 | 2.166 |  |  |  |  |  |  | 
6 | CC(C)Cc1ccc(C(C)C(=O)O)cc1 (stereo not given) [IBUPROFEN] | 82.7% | 7.51 nmol | 78.2% | 73.5% |  | 2.6 s |  | 2.315 | 140.14 U/ml | 34.26 U/ml | 1.74 g/dL | Toxic | 1.71 g/dL |  | 
7 | Clc1ccc(-c2nn3c(Nc4nc5ccc(Cl)cc5s4)nnc3s2)c(Cl)c1 | 89.6% | 5.74 nmol | 80% | 75.4% | 1.08 | 2.21 s | 0.92 | 0.925 |  |  |  |  |  |  | 
8 | Clc1ccc(-c2nnc(Nc3nc4ccc(Cl)cc4s3)o2)c(Cl)c1 | 87.1% | 3.29 nmol | 80% | 79% | 1.05 | 2.22 s | 0.96 | 0.917 | 138.42 U/ml | 30.74 U/ml | 1.75 g/dL | Non-toxic | 1.7 g/dL | Toxic | Non-toxic
9 | O=[N+]([O-])c1ccc(-c2nn3c(Nc4nc5ccc(Cl)cc5s4)nnc3s2)cc1 | 66.7% |  | 53.3% |  | 0.8 |  |  |  |  |  |  |  |  |  | 
10 | CC(=O)Oc1ccccc1-c1nnc(Nc2nc3ccc(Cl)cc3s2)o1 | 50.8% |  | 31% |  | 0.61 |  |  |  |  |  |  |  |  |  | 
11 | Clc1ccc2nc(Nc3nnc4sc(-c5ccccc5Cl)nn34)sc2c1 | 50.8% |  | 41.7% |  | 0.61 |  |  |  |  |  |  |  |  |  | 
12 | Clc1ccc2nc(Nc3nnc4sc(-c5ccccc5)nn34)sc2c1 | 57.9% |  | 48.3% |  | 0.7 |  |  |  |  |  |  |  |  |  | 
13 | CC(=O)Oc1ccccc1-c1nn2c(Nc3nc4ccc(Cl)cc4s3)nnc2s1 | 20.6% |  | 10% |  | 0.24 |  |  |  |  |  |  |  |  |  | 
14 | Clc1ccc2nc(Nc3nnc4sc(Oc5ccccc5)nn34)sc2c1 | 89.7% | 3.04 nmol | 78.3% | 75% | 1.08 | 2.17 s | 0.91 | 0.666 | 131.18 U/ml | 28.33 U/ml | 1.79 g/dL | Non-toxic | 1.74 g/dL | Toxic | Non-toxic
15 | Clc1ccc2nc(Nc3nnc(-c4ccccc4Cl)o3)sc2c1 | 53.2% |  | 53% |  | 0.64 |  |  |  |  |  |  |  |  |  | 
16 | Cc1ccccc1-c1nnc(Nc2nc3ccc(Cl)cc3s2)o1 | 37.7% |  | 23.9% |  | 0.45 |  |  |  |  |  |  |  |  |  | 

— ChEMBL document CHEMBL3046129, “Synthesis and pharmacological evaluation of N-(6-chlorobenzo[d]thiazol-2-yl)hydrazine carboxamide derivatives of benzothiazole” (Med Chem Res, 2013)
